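The compound was tested at five concentrations on cells cultured in 96-well plates, with a 48-hour exposure period. TGI marks complete inhibition of growth.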
Assays:
Experiment in all cases: NCI-60 cell line screen, 48 h
SK-OV-3 ovarian = test system: SK-OV-3 ovarian
SNB-19 CNS = test system: SNB-19 CNS
OVCAR-4 ovarian = test system: OVCAR-4 ovarian
ACHN renal = test system: ACHN renal
BT-549 breast = test system: BT-549 breast
HCC-2998 colon = test system: HCC-2998 colon
SNB-75 CNS = test system: SNB-75 CNS
TK-10 renal = test system: TK-10 renal
T-47D breast = test system: T-47D breast
OVCAR-8 ovarian = test system: OVCAR-8 ovarian
IGROV1 ovarian = test system: IGROV1 ovarian
PC-3 prostate = test system: PC-3 prostate
HCT-116 colon = test system: HCT-116 colon
UO-31 renal = test system: UO-31 renal
HCT-15 colon = test system: HCT-15 colon
HT29 colon = test system: HT29 colon
MCF7 breast = test system: MCF7 breast
HS 578T breast = test system: HS 578T breast
M14 melanoma = test system: M14 melanoma
NCI-H226 lung = test system: NCI-H226 lung
MDA-MB-231 breast = test system: MDA-MB-231 breast
SF-539 CNS = test system: SF-539 CNS
NCI-H460 lung = test system: NCI-H460 lung
SF-295 CNS = test system: SF-295 CNS
HL-60(TB) leukemia = test system: HL-60(TB) leukemia
MDA-MB-435 = test system: MDA-MB-435
U251 CNS = test system: U251 CNS
OVCAR-3 ovarian = test system: OVCAR-3 ovarian
SK-MEL-28 melanoma = test system: SK-MEL-28 melanoma
SW-620 colon = test system: SW-620 colon
MDA-N = test system: MDA-N
786-0 renal = test system: 786-0 renal
MOLT-4 leukemia = test system: MOLT-4 leukemia
LOX IMVI melanoma = test system: LOX IMVI melanoma
NCI/ADR-RES ovarian = test system: NCI/ADR-RES ovarian
A549 NSCLC = test system: A549 NSCLC
SF-268 CNS = test system: SF-268 CNS
NCI-H23 lung = test system: NCI-H23 lung
MALME-3M melanoma = test system: MALME-3M melanoma
DU-145 prostate = test system: DU-145 prostate
SK-MEL-5 melanoma = test system: SK-MEL-5 melanoma
COLO 205 colon = test system: COLO 205 colon
EKVX NSCLC = test system: EKVX NSCLC
CCRF-CEM leukemia = test system: CCRF-CEM leukemia
KM12 colon = test system: KM12 colon
SN12C renal = test system: SN12C renal
A498 renal = test system: A498 renal
OVCAR-5 ovarian = test system: OVCAR-5 ovarian
CAKI-1 renal = test system: CAKI-1 renal
UACC-62 melanoma = test system: UACC-62 melanoma
K-562 leukemia = test system: K-562 leukemia
NCI-H522 lung = test system: NCI-H522 lung
HOP-62 NSCLC = test system: HOP-62 NSCLC
RXF 393 renal = test system: RXF 393 renal
UACC-257 melanoma = test system: UACC-257 melanoma
SK-MEL-2 melanoma = test system: SK-MEL-2 melanoma
RPMI-8226 leukemia = test system: RPMI-8226 leukemia
HOP-92 NSCLC = test system: HOP-92 NSCLC

Question: What does the source list for `O=[N+]([O-])C(Cl)C(Cl)C(Cl)=C(Cl)Cl` (configuration not stated)?
Answer: TGI (SK-OV-3 ovarian): > 100 µM; TGI (SNB-19 CNS): > 100 µM; TGI (OVCAR-4 ovarian): 31.9 µM; TGI (ACHN renal): 31.1 µM; TGI (BT-549 breast): 43.9 µM; TGI (HCC-2998 colon): > 56.7 µM; TGI (SNB-75 CNS): > 72.7 µM; TGI (TK-10 renal): 39.4 µM; TGI (T-47D breast): 47.9 µM; TGI (OVCAR-8 ovarian): > 75.2 µM; TGI (IGROV1 ovarian): 18.3 µM; TGI (PC-3 prostate): > 57.4 µM; TGI (HCT-116 colon): 38.3 µM; TGI (UO-31 renal): > 31.6 µM; TGI (HCT-15 colon): 39.7 µM; TGI (HT29 colon): 36.4 µM; TGI (MCF7 breast): > 54.9 µM; TGI (HS 578T breast): 67.5 µM; TGI (M14 melanoma): 19.5 µM; TGI (NCI-H226 lung): > 100 µM; TGI (MDA-MB-231 breast): 34.6 µM; TGI (SF-539 CNS): > 70 µM; TGI (NCI-H460 lung): > 100 µM; TGI (SF-295 CNS): > 100 µM; TGI (HL-60(TB) leukemia): 44.1 µM; TGI (MDA-MB-435): 56.7 µM; TGI (U251 CNS): > 100 µM; TGI (OVCAR-3 ovarian): > 56.7 µM; TGI (SK-MEL-28 melanoma): 39 µM; TGI (SW-620 colon): 38.3 µM; TGI (MDA-N): 40.6 µM; TGI (786-0 renal): 22.3 µM; TGI (MOLT-4 leukemia): 47.8 µM; TGI (LOX IMVI melanoma): 28.8 µM; TGI (NCI/ADR-RES ovarian): > 73.9 µM; TGI (A549 NSCLC): > 100 µM; TGI (SF-268 CNS): > 70.5 µM; TGI (NCI-H23 lung): 60.4 µM; TGI (MALME-3M melanoma): 32.9 µM; TGI (DU-145 prostate): > 100 µM; TGI (SK-MEL-5 melanoma): 24.4 µM; TGI (COLO 205 colon): 34 µM; TGI (EKVX NSCLC): > 100 µM; TGI (CCRF-CEM leukemia): 58.6 µM; TGI (KM12 colon): > 100 µM; TGI (SN12C renal): > 57.7 µM; TGI (A498 renal): > 100 µM; TGI (OVCAR-5 ovarian): > 82.2 µM; TGI (CAKI-1 renal): 33.2 µM; TGI (UACC-62 melanoma): 32.9 µM; TGI (K-562 leukemia): 85.2 µM; TGI (NCI-H522 lung): 38.4 µM; TGI (HOP-62 NSCLC): > 100 µM; TGI (RXF 393 renal): 33.7 µM; TGI (UACC-257 melanoma): 41.9 µM

Question: `C=CCCCC1CCCNC1=O` (configuration not stated) was tested. Which TGI (SK-MEL-2 melanoma) did it give?
Answer: The TGI was greater than 100 µM.

Question: What about the TGI (SK-OV-3 ovarian) of the same compound?
Answer: Its TGI is greater than 100 µM.

Question: And the TGI (SNB-19 CNS)?
Answer: The TGI was greater than 100 µM.

Question: And the TGI (OVCAR-4 ovarian)?
Answer: The TGI was greater than 100 µM.

Question: And the TGI (ACHN renal)?
Answer: Its TGI is greater than 100 µM.

Question: And the TGI (BT-549 breast)?
Answer: The TGI was greater than 100 µM.

Question: What about the TGI (HCC-2998 colon) of the same compound?
Answer: Its TGI is greater than 100 µM.

Question: And the TGI (SNB-75 CNS)?
Answer: Its TGI is greater than 100 µM.

Question: What about the TGI (TK-10 renal) of the same compound?
Answer: Its TGI is greater than 100 µM.

Question: And the TGI (T-47D breast)?
Answer: Its TGI is greater than 100 µM.

Question: And the TGI (OVCAR-8 ovarian)?
Answer: The TGI was greater than 100 µM.

Question: And the TGI (IGROV1 ovarian)?
Answer: The TGI was greater than 100 µM.

Question: And the TGI (PC-3 prostate)?
Answer: The TGI was greater than 100 µM.

Question: What about the TGI (RPMI-8226 leukemia) of the same compound?
Answer: Its TGI is greater than 100 µM.

Question: And the TGI (HCT-116 colon)?
Answer: The TGI was greater than 100 µM.

Question: And the TGI (UO-31 renal)?
Answer: The TGI was greater than 100 µM.

Question: And the TGI (HCT-15 colon)?
Answer: The TGI was greater than 100 µM.

Question: What about the TGI (HT29 colon) of the same compound?
Answer: The TGI was greater than 100 µM.

Question: What about the TGI (MCF7 breast) of the same compound?
Answer: Its TGI is greater than 100 µM.

Question: What about the TGI (HS 578T breast) of the same compound?
Answer: The TGI was greater than 100 µM.

Question: What about the TGI (M14 melanoma) of the same compound?
Answer: Its TGI is greater than 100 µM.

Question: And the TGI (NCI-H226 lung)?
Answer: Its TGI is greater than 100 µM.

Question: What about the TGI (MDA-MB-231 breast) of the same compound?
Answer: The TGI was greater than 100 µM.

Question: What about the TGI (SF-539 CNS) of the same compound?
Answer: Its TGI is greater than 100 µM.

Question: And the TGI (NCI-H460 lung)?
Answer: The TGI was greater than 100 µM.

Question: And the TGI (SF-295 CNS)?
Answer: Its TGI is greater than 100 µM.

Question: What about the TGI (MDA-MB-435) of the same compound?
Answer: Its TGI is greater than 100 µM.

Question: What about the TGI (U251 CNS) of the same compound?
Answer: Its TGI is greater than 100 µM.

Question: What about the TGI (OVCAR-3 ovarian) of the same compound?
Answer: Its TGI is greater than 100 µM.

Question: What about the TGI (SK-MEL-28 melanoma) of the same compound?
Answer: The TGI was greater than 100 µM.

Question: What about the TGI (SW-620 colon) of the same compound?
Answer: The TGI was greater than 100 µM.

Question: And the TGI (MDA-N)?
Answer: The TGI was greater than 100 µM.

Question: And the TGI (786-0 renal)?
Answer: The TGI was greater than 100 µM.

Question: What about the TGI (MOLT-4 leukemia) of the same compound?
Answer: The TGI was greater than 100 µM.

Question: What about the TGI (A549 NSCLC) of the same compound?
Answer: Its TGI is greater than 100 µM.

Question: What about the TGI (SF-268 CNS) of the same compound?
Answer: Its TGI is greater than 100 µM.

Question: And the TGI (NCI-H23 lung)?
Answer: Its TGI is greater than 100 µM.

Question: And the TGI (DU-145 prostate)?
Answer: Its TGI is greater than 100 µM.

Question: And the TGI (SK-MEL-5 melanoma)?
Answer: The TGI was greater than 100 µM.

Question: What about the TGI (EKVX NSCLC) of the same compound?
Answer: The TGI was greater than 100 µM.

Question: And the TGI (KM12 colon)?
Answer: The TGI was greater than 100 µM.

Question: What about the TGI (SN12C renal) of the same compound?
Answer: Its TGI is greater than 100 µM.

Question: And the TGI (A498 renal)?
Answer: Its TGI is greater than 100 µM.

Question: And the TGI (OVCAR-5 ovarian)?
Answer: The TGI was greater than 100 µM.

Question: And the TGI (CAKI-1 renal)?
Answer: The TGI was greater than 100 µM.

Question: And the TGI (UACC-62 melanoma)?
Answer: The TGI was greater than 100 µM.

Question: And the TGI (K-562 leukemia)?
Answer: Its TGI is greater than 100 µM.

Question: What about the TGI (HOP-92 NSCLC) of the same compound?
Answer: The TGI was greater than 100 µM.

Question: What about the TGI (NCI-H522 lung) of the same compound?
Answer: Its TGI is greater than 100 µM.

Question: And the TGI (HOP-62 NSCLC)?
Answer: The TGI was greater than 100 µM.

Question: What about the TGI (RXF 393 renal) of the same compound?
Answer: Its TGI is greater than 100 µM.

Question: And the TGI (UACC-257 melanoma)?
Answer: Its TGI is greater than 100 µM.

From PubChem BioAssay (NCI)
